Source: patent US10525021B2, “Mitochondrial uncouplers for treatment of metabolic diseases and cancer” (RUTGERS, THE STATE UNIVERSITY OF NEW JERSEY, priority 2014, dated 2020)

What follows are molecules tested on AMPK (assay: AMPK activation analysis by immunoblotting with antibody against phosphorylated AMPK). Settings: two-hour treatment, phospho-AMPKα (Thr172) immunoblot.
Type: cell-based
Experimental: AMPK activation analysis by immunoblotting assay with antibody against phosphorylated AMPK: mouse pancreatic cancer cell line, Panc02, or NIH-3T3 fibroblasts, or human liver carcinoma cell line HepG2, were cultured in Dulbecco's modified Eagle's medium (DMEM) supplemented with 10% (vol/vol) fetal bovine serum, 100 unit·ml^−1 of penicillin, 100 μg·ml^−1 of streptomycin and 0.29 mg·ml^−1 of L-glutamine at 37° C. and 5% CO2. For treatment, individual compound was first dissolved in DMSO to make stock solution, and then was added directly to the culturing medium to desired concentration by at least 1:1000 dilution. After a two-hour treatment, cells were collected and homogenized within lysis buffer containing 10 mM TRIS-HCl (pH 7.9), 10% glycerol, 0.1 mM EDTA, 100 mM KCl, 0.2% NP-40, 0.5 mM PMSF, 1 mM DTT, mini-complete protease inhibitor cocktail (Roche, 11836153001), and phosphatase inhibitor cocktail (Roche, 04906845001) if required. Nuclei and insoluble debris were pelleted in an Eppendorf micro-centrifuge at 10,000 rpm for 5 min at 4° C. Cell extracts were then stored at −20° C. or immediately subjected to sodium dodecyl sulfate-polyacrylamide gel electrophoresis (SDS-PAGE). […] Quantification was determined by measuring band intensity using ImageJ software and calculating the ratio of protein of interesting to internal loading control. […]
With N#Cc1ccc(NC(=O)c2cc(Cl)ccc2OP(=O)(O)O)c(Cl)c1 [Compound 13, 4-Chloro-2-((2-chloro-4-cyanophenyl)carbamoyl)phenyl dihydrogen phosphate] the “Concentrations for AMPK activation” value was “*** (<=10 μM)”. In the case of O=C(Nc1cnc(Br)cn1)c1cc(Cl)ccc1O [Compound 2, N-(5-Bromopyrazin-2-yl)-5-chloro-2-hydroxybenzamide], the “Concentrations for AMPK activation” value is reported as “*** (<=10 μM)”.

Each molecule was assayed on mouse colon cancer cell line MC38 (assay: Clonogenic assay for cell proliferation inhibition (colony formation)). Settings: MC-38, MC38 cells, treated 24-48 hrs, colonies counted after 2 weeks, read-out: IC50 concentrations (inhibition of colony formation).
Type: cell-based
Experimental: Clonogenic assay for determining activity of cell proliferation inhibition: mouse colon cancer cell line MC38 was seeded onto 6-well plates at the density of about 200 cells per well, grown under medium conditions as described above, after attachment, cells were treated with ascending concentrations of example compounds for 24-48 hrs. The drug-containing medium was then removed and fresh medium without drug was added to each well. Cells were then grown for 2 weeks for colony formation. During the two weeks, old medium was aspirated out and fresh drug-free medium was added to the wells every two days. At the end of the experiment, the colonies were counted for the treatment at each concentration. IC50 is defined as the concentration that inhibits 50% of colony formation as compared to the no drug treatment control.
N#Cc1ccc(NC(=O)c2cc(Cl)ccc2OP(=O)(O)O)c(Cl)c1 [Compound 14, Sodium 4-chloro-2-((2-chloro-4-cyanophenyl)carbamoyl)phenyl phosphate] gave an IC50 of at most 10 µM.

What follows are molecules tested on NIH-3T3 cells, or HepG2 cells (assay: Mitochondrial uncoupling activity assay (loss of mitochondrial TMRE staining in live cells)). Settings: 2 h, read-out: Activities (mitochondrial uncoupling activity, EC50).
Type: cell-based
Experimental: Mitochondrial uncoupling analyses in live cells were performed with cultured mammalian cells, the NIH-3T3 cells, or HepG2 cells. Cells were seeded onto 6-well plate and cultured in DMEM medium supplemented with 10% fetal bovine serum and 2 mM glutamine. Cells were allowed to grow to logarithmic growth phase prior to experiments. The cells were treated with each individual synthesized compound at various concentrations for two hours, followed by staining with TMRE (tetramethylrhodamine ethyl ester) at final concentration of 100 nM for 15 minutes. The cells were then washed once with PBS, and examined under fluorescence microscopy. A positive control of cells treated with various concentrations of niclosamide ethanolamine were used as positive control. Percentage of cells losing mitochondrial TMRE staining was used as a quantification of mitochondrial uncoupling activity.
O=C(Nc1nc2c(F)cccc2s1)c1cc(Cl)ccc1O [Compound 18, 5-Chloro-N-(4-fluorobenzo[d]thiazol-2-yl)-2-hydroxybenzamide] was tested, and the EC50 was under 10 µM. In the case of O=C(Nc1nc2c(C(F)(F)F)cccc2s1)c1cc(Cl)ccc1O [Compound 29, 5-Chloro-2-hydroxy-N-(4-(trifluoromethyl)benzo[d]thiazol-2-yl)benzamide], the EC50 is reported as under 10 µM. With O=C(Nc1cccnn1)c1cc(Cl)ccc1O [Compound 9, 5-Chloro-2-hydroxy-N-(pyridazin-3-yl)benzamide] the EC50 was over 50 µM. O=C(Nc1nc2ccc(C(F)(F)F)cc2s1)c1cc(Cl)ccc1O [Compound 31, 5-chloro-2-hydroxy-N-(6-(trifluoromethyl)benzo[d]thiazol-2-yl)benzamide] was tested, and the EC50 was under 10 µM. In the case of CCOP(=O)(O)Oc1ccc(Cl)cc1C(=O)Nc1ccc(C#N)cc1Cl [Compound 12, 4-Chloro-2-((2-chloro-4-cyanophenyl)carbamoyl)phenyl ethyl hydrogen phosphate], the EC50 is reported as over 50 µM. Work on N#Cc1ccc(NC(=O)c2cc(Cl)ccc2O)nc1 [Compound 11, 5-Chloro-N-(5-cyanopyridin-2-yl)-2-hydroxybenzamide] yielded an EC50 of 10 to 50 µM. N#Cc1cnc(NC(=O)c2cc(Cl)ccc2O)cn1 [Compound 3, 5-Chloro-N-(5-cyanopyrazin-2-yl)-2-hydroxybenzamide] was tested, and the EC50 was under 10 µM. O=C(Nc1ccc(Cl)nn1)c1cc(Cl)ccc1O [Compound 10, 5-Chloro-N-(6-chloropyridazin-3-yl)-2-hydroxybenzamide] gave an EC50 of 10 to 50 µM. Molecule N#Cc1ccc(NC(=O)c2cc(Cl)ccc2OP(=O)(O)O)c(Cl)c1 [Compound 13, 4-Chloro-2-((2-chloro-4-cyanophenyl)carbamoyl)phenyl dihydrogen phosphate] has an EC50 of under 10 µM. O=C(Nc1cnccn1)c1cc(Cl)ccc1O [Compound 1, 5-Chloro-2-hydroxy-N-(pyrazin-2-yl)benzamide] was tested, and the EC50 was under 10 µM. For N#Cc1cnc(NC(=O)c2cc(Cl)ccc2OP(=O)(O)O)cn1 [Compound 19, 4-Chloro-2-((5-cyanopyrazin-2-yl)carbamoyl)phenyl dihydrogen phosphate], the EC50 was under 10 µM. Molecule N#Cc1cnc(NC(=O)c2cc(Cl)ccc2O)c(Cl)n1 [Compound 4, 5-Chloro-N-(3-chloro-5-cyanopyrazin-2-yl)-2-hydroxybenzamide] has an EC50 of over 50 µM. Work on O=C(Nc1cncnc1)c1cc(Cl)ccc1O [Compound 5, 5-Chloro-2-hydroxy-N-(pyrimidin-5-yl)benzamide] yielded an EC50 of over 50 µM.

Same assay, conditions: 2 h; two-hour treatment, TMRE 100 nM staining; concentration at which mitochondrial TMRE fluorescence is reduced to about 50%; read-out: Activities (mitochondrial uncoupling activity, EC50)
Molecule O=C(Nc1ccc2nccnc2c1)c1cc(Cl)ccc1O [Compound 22, 5-Chloro-2-hydroxy-N-(quinoxalin-6-yl)benzamide] has an EC50 of 10 to 50 µM. Work on O=C(Nc1cnc(C(F)(F)F)cn1)c1cc(Cl)ccc1O [Compound 35, 5-chloro-2-hydroxy-N-(5-(trifluoromethyl)pyrazin-2-yl)benzamide] yielded an EC50 of under 10 µM. Molecule O=C(Nc1cnc(Cl)nc1Cl)c1cc(Cl)ccc1O [Compound 6, 5-Chloro-N-(2,4-dichloropyrimidin-5-yl)-2-hydroxybenzamide] has an EC50 of over 50 µM. For O=C(Nc1ccc2ccncc2c1)c1cc(Cl)ccc1O [Compound 21, 5-Chloro-2-hydroxy-N-(isoquinolin-7-yl)benzamide], the EC50 was 10 to 50 µM. For N#Cc1cnc(NC(=O)c2cc(Cl)ccc2O)s1 [Compound 16, 5-chloro-N-(5-cyanothiazol-2-yl)-2-hydroxybenzamide], the EC50 was under 10 µM. For O=C(Nc1cnc(Cl)nc1)c1cc(Cl)ccc1O [Compound 7, 5-Chloro-N-(2-chloropyrimidin-5-yl)-2-hydroxybenzamide], the EC50 was under 10 µM. With O=C(Nc1cnc(Br)cn1)c1cc(Cl)ccc1O [Compound 2, N-(5-Bromopyrazin-2-yl)-5-chloro-2-hydroxybenzamide] the EC50 was under 10 µM. In the case of N#Cc1ccc2nc(NC(=O)c3cc(Cl)ccc3O)sc2c1 [Compound 36, 5-chloro-N-(6-cyanobenzo[d]thiazol-2-yl)-2-hydroxybenzamide], the EC50 is reported as under 10 µM. In the case of N#Cc1ncc(NC(=O)c2cc(Cl)ccc2O)cn1 [Compound 8, 5-Chloro-N-(2-cyanopyrimidin-5-yl)-2-hydroxybenzamide], the EC50 is reported as 10 to 50 µM. With O=C(Nc1ccc2scnc2c1)c1cc(Cl)ccc1O [Compound 15, N-(Benzo[d]thiazol-5-yl)-5-chloro-2-hydroxybenzamide] the EC50 was under 10 µM.
